The NIST ThermoML archive (doi:10.1021/je0601457)

Assay: xn = mol fraction of the nth substance listed

Cc1nccnc1C [2,3-dimethylpyrazine] + O=C=O
Fluid (supercritical or subcritical phases), Linear displacement technique
Conditions	mass density [kg/m3]
294.15 K, 7140 kPa, x1 = 0.027	905
294.15 K, 9590 kPa, x1 = 0.027	934
294.15 K, 14100 kPa, x1 = 0.027	983
294.55 K, 7140 kPa, x1 = 0.049	1099
294.55 K, 7140 kPa, x1 = 0.184	947
294.55 K, 8520 kPa, x1 = 0.184	949
294.55 K, 10590 kPa, x1 = 0.049	1123
294.55 K, 12450 kPa, x1 = 0.184	951
294.55 K, 13830 kPa, x1 = 0.049	1142
294.75 K, 2240 kPa, x1 = 0.736	861
294.75 K, 3830 kPa, x1 = 0.736	864
294.75 K, 5690 kPa, x1 = 0.736	864
294.75 K, 6720 kPa, x1 = 0.033	836
294.75 K, 8450 kPa, x1 = 0.033	858
294.75 K, 13830 kPa, x1 = 0.033	911
294.85 K, 6660 kPa, x1 = 0.108	899
294.85 K, 7070 kPa, x1 = 0.565	958
294.85 K, 10070 kPa, x1 = 0.108	901
294.85 K, 10620 kPa, x1 = 0.565	961
294.85 K, 13620 kPa, x1 = 0.108	904
294.85 K, 15240 kPa, x1 = 0.565	964
294.85 K, 18660 kPa, x1 = 0.108	908
295.05 K, 7070 kPa, x1 = 0.157	995
295.05 K, 10310 kPa, x1 = 0.157	1004
295.05 K, 13480 kPa, x1 = 0.157	1014
295.25 K, 6140 kPa, x1 = 0.086	767
295.25 K, 6380 kPa, x1 = 0.057	871
295.25 K, 7410 kPa, x1 = 0.057	885
295.25 K, 7690 kPa, x1 = 0.01	785
295.25 K, 8380 kPa, x1 = 0.086	778
295.25 K, 10170 kPa, x1 = 0.057	911
295.25 K, 11100 kPa, x1 = 0.01	833
295.25 K, 12100 kPa, x1 = 0.086	799
295.25 K, 15790 kPa, x1 = 0.01	873
295.25 K, 16070 kPa, x1 = 0.086	817
296.25 K, 4410 kPa, x1 = 0.433	989
296.25 K, 7660 kPa, x1 = 0.433	997
296.25 K, 10720 kPa, x1 = 0.433	1002
301.75 K, 6620 kPa, x1 = 0.565	938
301.75 K, 9830 kPa, x1 = 0.565	941
301.75 K, 15790 kPa, x1 = 0.565	946
302.65 K, 7520 kPa, x1 = 0.049	902
302.65 K, 10030 kPa, x1 = 0.049	934
302.65 K, 13030 kPa, x1 = 0.049	962
302.65 K, 16660 kPa, x1 = 0.049	1000
303.25 K, 7410 kPa, x1 = 0.291	859
303.25 K, 9860 kPa, x1 = 0.291	860
303.25 K, 15450 kPa, x1 = 0.291	860
306.25 K, 7410 kPa, x1 = 0.027	750
306.25 K, 9900 kPa, x1 = 0.027	812
306.25 K, 13380 kPa, x1 = 0.027	864
308.95 K, 7070 kPa, x1 = 0.157	952
308.95 K, 9450 kPa, x1 = 0.157	964
308.95 K, 13480 kPa, x1 = 0.157	981
308.95 K, 17690 kPa, x1 = 0.157	996
310.85 K, 6970 kPa, x1 = 0.433	967
310.85 K, 12480 kPa, x1 = 0.433	975
310.85 K, 21340 kPa, x1 = 0.433	994
311.45 K, 7380 kPa, x1 = 0.184	912
311.45 K, 9210 kPa, x1 = 0.184	918
311.45 K, 12380 kPa, x1 = 0.184	925
311.45 K, 16720 kPa, x1 = 0.184	932
312.65 K, 10170 kPa, x1 = 0.033	763
312.65 K, 12660 kPa, x1 = 0.033	804
312.65 K, 15970 kPa, x1 = 0.033	851
312.75 K, 8520 kPa, x1 = 0.057	874
312.75 K, 9970 kPa, x1 = 0.057	905
312.75 K, 10450 kPa, x1 = 0.057	914
313.95 K, 10520 kPa, x1 = 0.108	879
313.95 K, 13660 kPa, x1 = 0.108	888
313.95 K, 17210 kPa, x1 = 0.108	896
314.25 K, 9830 kPa, x1 = 0.01	500
314.25 K, 11830 kPa, x1 = 0.01	769
314.25 K, 18590 kPa, x1 = 0.01	799
315.85 K, 9380 kPa, x1 = 0.086	702
315.85 K, 12310 kPa, x1 = 0.086	728
315.85 K, 16520 kPa, x1 = 0.086	752
315.85 K, 24210 kPa, x1 = 0.086	786
316.05 K, 7480 kPa, x1 = 0.291	857
316.05 K, 8660 kPa, x1 = 0.291	858
316.05 K, 11340 kPa, x1 = 0.291	858
316.25 K, 6170 kPa, x1 = 0.565	923
316.25 K, 10000 kPa, x1 = 0.565	926
316.25 K, 16380 kPa, x1 = 0.565	935
317.35 K, 5590 kPa, x1 = 0.736	859
317.35 K, 11590 kPa, x1 = 0.736	860
317.35 K, 16450 kPa, x1 = 0.736	862
318.75 K, 7690 kPa, x1 = 0.433	955
318.75 K, 16070 kPa, x1 = 0.433	969
318.75 K, 22930 kPa, x1 = 0.433	977
319.35 K, 10520 kPa, x1 = 0.049	834
319.35 K, 15340 kPa, x1 = 0.049	906
319.35 K, 18660 kPa, x1 = 0.049	946
321.05 K, 10210 kPa, x1 = 0.157	927
321.05 K, 12000 kPa, x1 = 0.157	937
321.05 K, 16280 kPa, x1 = 0.157	958
321.05 K, 18660 kPa, x1 = 0.157	970
322.35 K, 11790 kPa, x1 = 0.027	717
322.35 K, 13000 kPa, x1 = 0.027	688
322.35 K, 13410 kPa, x1 = 0.027	761
322.35 K, 15620 kPa, x1 = 0.027	757
322.35 K, 16310 kPa, x1 = 0.027	812
323.35 K, 10660 kPa, x1 = 0.057	815
323.35 K, 11970 kPa, x1 = 0.057	849
323.35 K, 16030 kPa, x1 = 0.057	904
324.95 K, 7830 kPa, x1 = 0.433	944
324.95 K, 13900 kPa, x1 = 0.433	955
324.95 K, 20660 kPa, x1 = 0.433	968
325.25 K, 6140 kPa, x1 = 0.736	859
325.25 K, 10720 kPa, x1 = 0.736	860
325.25 K, 18170 kPa, x1 = 0.736	861
325.65 K, 10520 kPa, x1 = 0.184	894
325.65 K, 12660 kPa, x1 = 0.184	903
325.65 K, 18030 kPa, x1 = 0.184	916
328.55 K, 10170 kPa, x1 = 0.291	857
328.55 K, 10660 kPa, x1 = 0.01	438
328.55 K, 10970 kPa, x1 = 0.01	552
328.55 K, 11970 kPa, x1 = 0.01	635
328.55 K, 12140 kPa, x1 = 0.291	858
328.55 K, 13000 kPa, x1 = 0.01	688

Liquid, linear displacement
Conditions	mass density [kg/m3]
294.15 K, x1 = 0.027	868
294.55 K, x1 = 0.049	1077
294.55 K, x1 = 0.184	945
294.75 K, x1 = 0.033	802
294.75 K, x1 = 0.736	861
294.85 K, x1 = 0.108	896
294.85 K, x1 = 0.565	947
295.05 K, x1 = 0.157	982
295.25 K, x1 = 0.01	735
295.25 K, x1 = 0.057	832
295.25 K, x1 = 0.086	730
296.25 K, x1 = 0.433	985
301.75 K, x1 = 0.565	920
302.65 K, x1 = 0.049	876
303.25 K, x1 = 0.291	858
306.25 K, x1 = 0.027	738
308.95 K, x1 = 0.157	948
310.85 K, x1 = 0.433	962
311.45 K, x1 = 0.184	912
312.65 K, x1 = 0.033	694
312.75 K, x1 = 0.057	860
313.95 K, x1 = 0.108	864
314.25 K, x1 = 0.01	584
315.85 K, x1 = 0.086	687
316.05 K, x1 = 0.291	858
316.25 K, x1 = 0.565	920
317.35 K, x1 = 0.736	859
318.75 K, x1 = 0.433	951
319.35 K, x1 = 0.049	790
321.05 K, x1 = 0.157	912
322.35 K, x1 = 0.027	612
323.35 K, x1 = 0.057	784
324.95 K, x1 = 0.433	940
325.25 K, x1 = 0.736	857
325.65 K, x1 = 0.184	885
